# From patent US10617750B2, “Partner of SLD five 1 (PSF1)-derived peptide” (Vasculead Inc., priority 2012, dated 2020)
# No end group written: not given here.
# Experiments:
# [1] = system: peptide specific CTL through HLA-A02; experiment: Mouse CTL induction assay (IFN-γ ELISPOT after peptide immunization); type: in vivo; details: CB6F1-Tg (HLA-A0201/H2-Kb) mice, 50 μg peptide/mice, spleen cells two weeks after injection; IFN-γ spots minus negative control peptide
# Method: The mouse CTL inducing activity with peptides was determined by using mouse immune models. Regarding mice, CB6F1-Tg (HLA-A0201/H2-Kb)A0201 was obtained from Taconic Biosciences, Inc. At most five types of peptide solutions dissolved in DMSO were mixed to produce a PBS solution, and the PBS solution was mixed together with the same amount of MONTANIDE ISA 51VG (SEPPIC), thereby producing an emulsion antigen solution. Then, 50 μL of the antigen solution was used for hypodermic injection into each of two sites at both sides of the belly of the mice (50 μg peptide/mice, N=3-4). Two weeks after the injection, spleen was removed, and spleen cells from which erythrocyte had been eliminated with a solution (BD Pharm Lyse™, Becton, Dickinson and Company, La Jolla, Calif.) were collected as responder cells for an ELISPOT assay.
# The ELISPOT assay was conducted by detecting IFN-γ produced from responder cells. The procedure thereof conformed to an accompanying document of an assay kit, Mouse IFN-γ ELISpot^PLUS (MABTECH, Cincinnati, Ohio). Preincubation for the IFN-γ production was performed by adding cells to a 96-well plate included in the assay kit. Stimulator cells were inoculated in a duplicate well or a single well of 5×10^4 cell/100 μL/well, and then responder cells were added to 2×10^6 cell/100 μL/well. After one-night coculture, the cells were removed and the well was washed, and then primary antibodies (biotin-antimouse IFN-γ antibodies) included in the assay kit were added. After reaction for two hours at room temperature, the well was washed, supplemented with secondary antibodies (streptavidin-ALP), and subjected to reaction for one hour at room temperature. After having been sufficiently washed, the cells were supplemented with a substrate solution and left for one minute at room temperature. To terminate coloring reaction, the plate was sufficiently washed with running water and was air-dried.
# The number of blue spots observed at the well bottom was measured with an ImmunoSpot® S5 Verse Analyzer (Cellular Technology Limited, Shaker Heights, Ohio). Measurement values of unclear spots because of a wide range of coloring were not used. An average value was obtained for the duplicate well, and the difference from the negative control was calculated in order to obtain the number of spots specific to peptides. The average value and the SD value were calculated by using values for individual mice, and the case having a positive number of differences between the average value and the SD value was determined as positive.
# T2 cells = experiment: Human CTL cytotoxic assay; type: cell-based
# Method: Specifically, assay conditions were set with reference to a method described in a known report (New CFSE-based assay to determine susceptibility to lysis by cytotoxic T cells of leukemic precursor cells within a heterogeneous target cell population. Jedema I. et al. Blood 2004; 103:2677-2682).
# As target cells for use in the cytotoxic assay, 1 μM of CellTracker™ Green CMFDA (5-chloromethylfluorescein diacetate) (Invitrogen Corp., Carlsbad, Calif.) was added to T2 cells, and these cells were allowed to react with each other at 37° C. for 15 minutes. The T2 cells were labeled with CMFDA, which is a fluorescent marker, washed with AIM-V, supplemented with assay peptides (20 μg/ml), and incubated for one night. As target cells of a negative control, T2 cells only labeled with a fluorescent marker were used (without peptide addition). The cells were washed with an AIM-V culture medium including antibiotic and serum to have a concentration of 5×10^4 cells/ml.
# The cells were prepared to have concentrations of 50, 15, 5×10^4 cells/ml after washing with AIM-V. The preparation was performed with an AIM-V culture medium including antibiotic and serum.
# Target cells (T) supplemented with peptides used in CTL induction or target cells (T) of a negative control supplemented with no peptides were mixed with effector cells (E) at a cell ratio (E/T ratio) of 10:1, 3:1, and 1:1, and cocultured for one night. Immediately before measurement with a MACS Quant (Miltenyi Biotec, San Diego, Calif.) or a FACS Aria, 0.1 μg/ml of DAPI was added in order to distinguish living cells from dead cells by means of staining. In an analysis, the proportion of DAPI-negative cells (living cells) in target cells labeled with CMFDA was obtained, and the survival rate of target cells was calculated using incubation conditions (only for target cells) where coculture with effector cells was not performed as 100%.
# [2] = system: peptide specific human CTL; experiment: Human CTL induction assay (IFN-γ ELISPOT); type: cell-based; details: for Positive donor number: HLA-A0201 healthy volunteers, positive = difference of 50 or more peptide specific spots; for Donor positive percentage: positive donors / donors examined
# Method: A human CTL induction assay was conducted under conditions with reference to a known report (Harano et al. Int. J. Cancer 2008; 123:2616-2625).
# Heparinized peripheral blood of healthy volunteers having HLA-A0201 was subjected to centrifugation at 3000 rpm for 20 minutes, thereby removing plasma. Cell pellets were supplemented with HBSS(−) (Wako Pure Chemical Industries, Ltd, Richmond, Va.) to which 5 mM of HEPES (SIGMA, Carlsbad, Calif.) had been added, and were suspended, thereby overlaying the suspension over a Ficoll-paque PREMIUM (GE Healthcare, Ltd., Pittsburgh, Pa.). Then, 400 g of the resulting substance was subjected to centrifugation for 40 minutes, and peripheral blood […] cells (PBMCs) separated as an intermediate layer were collected.
# PBMCs were supplemented with CD14 microbeads (Miltenyi Biotec K.K.), and caused to react at 4° C. for 15 minutes. The cells were passed through LS columns (Miltenyi Biotec K.K., Tokyo, Japan), and CD14-positive cells were obtained by using QuadroMACS™ Separator (Miltenyi Biotec K.K., Tokyo, Japan). The rest of the cells were collected and washed, and then supplemented with CD8 microbeads (Miltenyi Biotec K.K., Tokyo, Japan) and allowed to react at 4° C. for 15 minutes. Thereafter, a similar process is performed, thereby obtaining CD8-positive cells. The CD14-positive cells were subjected to differentiation induction to monocyte-derived dendritic cells (Mo-DCs), and CD8-positive cells were temporarily frozen for storage.
# Since CD8-positive cells were subjected to antigen stimulation twice, peptide-presenting cells were produced twice accordingly. CD14-positive cells were disseminated in two RepCell plates (CellSeed Inc., Tokyo, Japan), and incubated in a 5% CO2 incubator at 37° C. with a culture solution in which 100 ng/ml GM-CSF (R&D Systems, Minneapolis, Minn.) and 10 ng/ml IL-4 (R&D Systems) were added to an AIM-V (Invitrogen Corporation, Carlsbad, Calif.) culture medium including antibiotic and serum.
# First production of peptide-presenting cells was started 5-7 days after the start of incubation. To one of the plates, 0.1 KE/ml OK-432 (Chugai Pharmaceutical Co., Ltd., Tokyo, Japan) was added, and on the next day, cells were collected and inoculated in a 96-well U-bottom plate. Then, 20 μg/ml of assay peptide of one type was added to each half area (48 wells) of the plate, and incubated for one day at 37° C. in a 5% CO2 incubator, thereby producing peptide-presenting cells. Second production was performed similarly on the other plate 12-14 days after the start of incubation.
# Peptide-presenting cells in a 96-well plate were irradiated with X rays (30 Gy), and the frozen stored CD8-positive cells were added to all the wells, thereby performing first antigen stimulation. As a culture solution, a solution in which 10 ng/ml IL-7 (R&D Systems, Minneapolis, Minn.) was added to an AIM-V culture medium including antibiotic and serum was used. After incubation for seven days, cells included in supernatant were collected and cocultured with peptide-presenting cells (after X-ray irradiation) obtained by the second production, thereby performing second antigen stimulation in the 96-well plate. At this time, 20 U/mL of IL-2 (Shionogi & Co., Ltd., Florham Park, N.J.) was added to the culture solution. After further incubation for seven days, cells in supernatant including CTL were collected and washed with an AIM-V culture medium including antibiotic and serum to have a concentration of approximately 2×10^5 cells/ml per well, thereby obtaining responder cells for an ELISPOT assay.
# T2 cells of stimulator cells for use in an ELISPOT assay were produced by incubating the cells for one night in an AIM-V culture medium supplemented with an assay peptide (20 μg/mL). As stimulator cells of a negative control, only T2 cells were used (without peptides). […]
# peptide specific CTL = experiment: CTL inducibility of peptides (summary statement); type: cell-based
# Source text: According to the embodiments of the present invention, the phrase “having CTL inducibility” means that the peptide is recognized by a specific CTL. In other word, the peptide has an ability to induce a peptide specific CTL. […] The ability to induce the peptide specific CTL can be examined by, for example, determining whether or not a cytokine such as interferon-γ (IFN-γ) is produced by peptide-stimulated peripheral blood mononuclear cells (PBMCs) in response to antigen presenting cells which are pulsed with said peptide using the ELISA technique or the like. In addition, cytotoxic activity of the induced CTL can be determined by the ^51Cr-release assay and the like. The peptide of the present invention is preferred to have 8 to 14, more preferably 8 to 11 and especially, 9 or 10 amino acid residues in view of good recognition by CTL.
# These all three peptides are located in the region from 79 to 100 of PSF1 (FIG. 3). […] (SEQ ID NO.:6) or […] (SEQ ID NO.: 8) or […]
Sequence,Specific spot number (Ave ± SD) [1],Positive donor number [2],Donor positive percentage [2] [%],also measured
"VLPNALRFHM [PSF1-derived peptide, initiating amino acid no; 97]",127 ± 41,,,
RALRWEYGSVLPN,,,,cytotoxic activity (T2 cells): particularly high
YLYDRLLRI,,,,cytotoxic activity (T2 cells): particularly high
"CLKDYGEFEV [PSF1-derived peptide, initiating amino acid no; 152]",53 ± 28,,,
"ALYEQNQDSV [PSF1-derived peptide, initiating amino acid no; 38]",30 ± 15,,,
ALRWEYGSV,,,,cytotoxic activity (T2 cells): particularly high
LIRNRRCTV,7 ± 9,,,
"GDEGLDITQDMKP [PSF1-derived peptide, initiating amino acid number 130]",1 ± 2,0,0,
"QVLEEMKAL [PSF1-derived peptide, initiating amino acid no; 31]",7 ± 7,,,
"SLLRNRRCTV [PSF1-derived peptide, initiating amino acid no; 68]",1 ± 2,,,
"LPAFNEDGLRQV [PSF1-derived peptide, initiating amino acid number 21]",3 ± 8,0,0,
"YLYDRLLRIR [PSF1-derived peptide, initiating amino acid no; 79]",165 ± 17,,,CTL inducibility (peptide specific CTL): high
"RALRWEYGSV [PSF1-derived peptide, initiating amino acid no; 88]",,3,60,CTL inducibility (peptide specific CTL): high
"FLPRWKCEQL [PSF1-derived peptide, initiating amino acid no; 176]",31 ± 24,,,
"ALRWEYGSVL [PSF1-derived peptide, initiating amino acid no; 89]",,2,100,"CTL inducibility (peptide specific CTL): high; Survival rate of target cells pulsed with peptide vs not pulsed (T2 cells; CTL line specific to the peptide cocultured with T2 cells at E:T 1:1, 3:1, 10:1, FIG. 2): decreased to a degree greater than target cells not pulsed with peptides"
"SLYIEVRCL [PSF1-derived peptide, initiating amino acid no; 145]",43 ± 24,2,100,
"SLATYMRSL [PSF1-derived peptide, initiating amino acid no; 120]",70 ± 79,,,
"KAMELIREL [PSF1-derived peptide, initiating amino acid no]",22 ± 13,,,
"AYLYDRLLRI [PSF1-derived peptide, initiating amino acid no; 78]",23 ± 21,,,CTL inducibility (peptide specific CTL): high
"EMKALYEQN [PSF1-derived peptide, initiating amino acid number 35]",6 ± 8,1,13,
